Results on 5 molecules are retold here after patent US8614068B2, “Process for producing hepcidin” (Hellenic Pasteur Institute, priority 2007, dated 2013).

The test system of one test is bacteria ML35p. To be noted: at 30 μM concentration; cited from earlier work.
The test system of the next test is TfR1. Briefly: Western blot of TfR1 expression in macrophages. To be noted: RAW 264.7, 10 μM, 4 h at 37° C. The test is classed as cell-based, murine. As to the method:
(§1) A, RAW 264.7 macrophages were treated with 11 μM and 10 μM of synthetic hepcidin-25 (having the sequence of SEQ ID NO. 2) and Hep-25His (having the sequence of SEQ ID NO. 6) for 4 h at 37° C. or with PBS as negative control. Cell lysates were subjected to 8% SDS PAGE and Western Blot with antibodies against TfR1, Ferroportin and actin as loading control. B, The signal density of ferroportin, TfR1 and actin protein bands from two independent experiments were quantified by densitometry and their intensity relative to actin was calculated. […] Hep25-His, negative peptide and PBS was incubated with Raw 264.7 macrophages, followed by cross-linking with DSS. Cell lysates were incubated with Ni2-NTA and eluates were analyzed by Western blot using anti-FPN1 Ab. […] HEK293-Fpn cells were induced with ponasterone for 24 h and then treated with Hep25-His or synthetic hepcidin 25 (s. Hep25) for 3 h. Fluorescence was visualized with a Leica TCS confocal microscope.
Western blotting—1×10^6 cells (RAW 264.7, THP-1 or J774) were plated in […] plates and after 12-20 h cells were treated with hepcidins in serum-free DMEM for 4 h, at 37° C. Afterwards, cells were re-suspended in lysis buffer (1% Triton, 25 mM Hepes pH 7.4, 150 mM NaCl, 10% Glycerol, 5 mM EDTA, 0.5 mM PMSF, protein inhibitors (Roche, Mannheim, Germany) and quantified by Bradford assay (Biorad, Hercules, Calif.). 30 μg of cell lysate was analyzed on 8% SDS-PAGE. Proteins were transferred to Hybond C nitrocellulose membrane (Amersham Biosciences, Piscataway, N.J.) and the membranes were incubated with the primary antibodies rabbit anti-ferroportin (Alpha Diagnostics, San Antonio, Tex.), mouse anti-TfR1 (Zymed, Invitrogen, Carlsbad, Calif.) and mouse anti-β actin (Santa Cruz Biotech, Santa Cruz, Calif.), in a dilution of 1:1000, overnight at 4° C. […] Specific signal was detected with a chemiluminescence assay kit (ECL, Amersham Biosciences, Piscataway, N.J.). The bands were quantified by densitometry using the Quantity-One (Biorad, Hercules, Calif.) software. […]
(Immunoblotting shows a protein as a band on a membrane.)

The next test addresses T1, ferroportin (FPN1) (Mus musculus, UniProt Q9JHI9).
T1 construct: endogenous in cells; host or cells: RAW 264.7 murine macrophages
T1 sequence (Q9JHI9 1-570): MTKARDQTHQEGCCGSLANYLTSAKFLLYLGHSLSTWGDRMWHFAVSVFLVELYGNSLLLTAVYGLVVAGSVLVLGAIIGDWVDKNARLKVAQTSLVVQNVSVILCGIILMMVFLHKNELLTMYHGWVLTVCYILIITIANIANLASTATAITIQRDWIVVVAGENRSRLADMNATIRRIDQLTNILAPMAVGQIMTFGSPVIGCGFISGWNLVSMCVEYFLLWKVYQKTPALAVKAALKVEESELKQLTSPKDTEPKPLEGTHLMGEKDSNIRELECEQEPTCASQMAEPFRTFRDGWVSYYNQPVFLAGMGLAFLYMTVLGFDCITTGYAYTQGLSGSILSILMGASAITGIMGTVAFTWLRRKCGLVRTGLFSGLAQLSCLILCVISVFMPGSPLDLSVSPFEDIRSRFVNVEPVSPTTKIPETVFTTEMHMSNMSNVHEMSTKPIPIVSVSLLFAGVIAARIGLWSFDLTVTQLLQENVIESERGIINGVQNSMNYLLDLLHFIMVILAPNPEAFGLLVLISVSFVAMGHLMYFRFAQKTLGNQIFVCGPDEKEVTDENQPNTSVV
In words: Western blot of ferroportin expression in macrophages. To be noted: data not shown. The test is classed as cell-based, murine. As for the experimental part: as §1
Western blotting—1×10^6 cells (RAW 264.7, THP-1 or J774) were plated in […] plates and after 12-20 h cells were treated with hepcidins in serum-free DMEM for 4 h, at 37° C. Afterwards, cells were re-suspended in lysis buffer (1% Triton, 25 mM Hepes pH 7.4, 150 mM NaCl, 10% Glycerol, 5 mM EDTA, 0.5 mM PMSF, protein inhibitors (Roche, Mannheim, Germany) and quantified by Bradford assay (Biorad, Hercules, Calif.). 30 μg of cell lysate was analyzed on 8% SDS-PAGE. Proteins were transferred to Hybond C nitrocellulose membrane (Amersham Biosciences, Piscataway, N.J.) and the membranes were incubated with the primary antibodies rabbit anti-ferroportin (Alpha Diagnostics, San Antonio, Tex.), mouse anti-TfR1 (Zymed, Invitrogen, Carlsbad, Calif.) and mouse anti-β actin (Santa Cruz Biotech, Santa Cruz, Calif.), in a dilution of 1:1000, overnight at 4° C. After washing, the membranes were incubated with anti-rabbit and anti-mouse secondary antibodies conjugated with HRP, in a dilution of 1:5000 (DakoCytomation, Carpinteria, Calif.), for 1 h at room temperature. Specific signal was detected with a chemiluminescence assay kit (ECL, Amersham Biosciences, Piscataway, N.J.). The bands were quantified by densitometry using the Quantity-One (Biorad, Hercules, Calif.) software. Data are shown as means±SD. Statistical analysis was performed by student t-Test.

pIC50: −log10 of the molar value. Ends that are not written are not given here.

Description for E. coli strain ML35: Antimicrobial activity of recombinant tagged hepcidins. E. coli strain ML35 was subjected to CFU assay in order to determine the antimicrobial activity of synthetic hepcidin 25 (s. Hep25) having the sequence os SEQ ID NO. 2, Hep-25His having the sequence of SEQ ID NO. 6, Hep-25MycHis having the sequence of SEQ ID NO. 8, Hep-20MycHis having the sequence of SEQ ID NO. 7 and negative peptide having the sequence SEQ ID NO. 9 at the concentrations indicated for 2 h at 37° C. Sodium phosphate buffer was used as negative control.
Antimicrobial assay—All purified recombinant hepcidins were tested for antibacterial activity against E. coli ML35 and BL21(DE) is a CFU assay (Porter E. M., van Dam E., Valore E. V., Ganz T., Broad-spectrum antimicrobial activity of human intestinal defensin 5, Infect. Immun. 65 (1997) 2396-2401.). Bacterial cell cultures were grown to OD600=0.2 (5×10^7 cfu/ml) and resuspended to a final concentration of 10^6 cfu/ml in 20mM sodium phosphate buffer, pH7.4. Various concentrations of peptides were added to a final volume of 100 μl and after incubation for 2 h at 37° C., surviving cells were plated in triplicates to LB/agar plates.
Antimicrobial activity of recombinant hepcidins—The colony forming unit assay (E. M. Porter, E. van Dam, E. V. Valore, T. Ganz, Broad-spectrum antimicrobial activity of human intestinal defensin 5, Infect. Immun. 65 (1997) 2396-2401) was used to determine the antimicrobial activity of the purified recombinant hepcidin forms against the E. coli strain, ML35. […] Surviving microbes were counted following incubation with various concentrations of recombinant hepcidin preparations, synthetic hepcidin or negative peptide for 2 h at 37° C.

With “hep20: hepcidin 20 as tested by Park et al. 2001 (ICIFCCGCCHRSKCGMCCKT; ends and bridges not checked; cysteine pairing not given here; UniProt P81172 65-84, looked up)”, in the test on bacteria ML35p, the “reduction of surviving bacteria ML35p” value was 1000 fold.
On to “hepcidin-20 (ICIFCCGCCHRSKCGMCCKT; listed as Homo sapiens)”, for which, in the test with E. coli strain ML35 (CFU assay, 2 h at 37° C., data not shown), the “concentration at which bactericidal” value was “higher than 10 mM”.
Consider `CC[C@H](C)[C@@H]1NC(=O)[C@@H](NC(=O)[C@@H](NC(=O)[C@@H]2CCCN2C(=O)[C@H](Cc2ccccc2)NC(=O)[C@H](Cc2c[nH]cn2)NC(=O)[C@@H](NC(=O)[C@@H](N)CC(=O)O)[C@@H](C)O)[C@@H](C)CC)CSSC[C@@H](C(=O)N[C@@H](CCCCN)C(=O)N[C@H](C(=O)O)[C@@H](C)O)NC(=O)[C@@H]2CSSC[C@H](NC(=O)[C@H](Cc3ccccc3)NC1=O)C(=O)N[C@H]1CSSC[C@H](NC(=O)[C@H](CCCCN)NC(=O)[C@H](CO)NC(=O)[C@H](CCCNC(=N)N)NC(=O)[C@H](Cc3c[nH]cn3)NC(=O)[C@@H]3CSSC[C@H](NC(=O)CNC1=O)C(=O)N3)C(=O)NCC(=O)N[C@@H](CCSC)C(=O)N2` [synthetic hepcidin 25, hepcidin 25, reference compound], for which the negative logarithm of the IC50 (pIC50) with E. coli strain ML35 (ML35, 2 h) was 5.05. The “reduction of TfR1 in comparison to untreated cells” value with TfR1 was 37%±6.
For “oligomeric fraction of Hep25-His: oligomer peak of Ni-NTA purified Hep-25His from size exclusion chromatography”, in the test with ferroportin (FPN1), the “effect on cellular iron metabolism” value is given as “no effect”.
In the case of “hep25: hepcidin 25 as tested by Park et al. 2001 (natural, isolated from urine, or synthetic) (DTHFPICIFCCGCCHRSKCGMCCKT; ends and bridges not checked; cysteine pairing not given here; UniProt P81172 60-84, looked up)”, the “reduction of surviving bacteria ML35p” value in the test on bacteria ML35p was 1000 fold.

As usually defined, the pIC50 is the IC50 on a negative log10 scale, so that one unit is a factor of ten.
